Measured values published in patent US20240226030A1, “COMPOSITIONS AND METHODS USING AT LEAST ONE OF INOSITOL, ERYTHRITOL OR SORBITOL TO ENHANCE GROWTH OF FAECALIBACTERIUM PRAUSNITZII” (SOCIÉTÉ DES PRODUITS NESTLE S.A., priority 2021, published 2024).

Tests used:
[1] = test system: F. prausnitzii; test: Model organism test of sugar alcohols as energy substrate for F. prausnitzii; format: cell-based, Faecalibacterium prausnitzii; settings: FIGS. 4A and 4B
Excerpt: Using a model organism, the effect of inositol and sorbitol as energy substrate for F. prausnitzii was confirmed (FIGS. 4A and 4B), but not xylitol. Thus, all sugar alcohols cannot be assumed to have the same effect on F. prausnitzii.

[2] = test system: F. prausnitzii; test: Growth of F. prausnitzii with added vitamins, glucose as substrate; format: cell-based, Faecalibacterium prausnitzii; settings: FIG. 6D

OC[C@@H](O)[C@@H](O)CO [erythritol]
effect as energy substrate for F. prausnitzii [1]: confirmed

OC[C@@H](O)[C@@H](O)[C@H](O)[C@@H](O)CO [sorbitol]
effect as energy substrate for F. prausnitzii [1]: confirmed

O[C@H]1[C@H](O)[C@@H](O)[C@H](O)[C@@H](O)[C@H]1O [inositol]
effect as energy substrate for F. prausnitzii [1]: confirmed

OC[C@@H](O)[C@H](O)[C@@H](O)CO [xylitol, reference compound]
effect as energy substrate for F. prausnitzii [1]: not

Vitamin B12
growth of F. prausnitzii compared with control [2]: more than control
